Patent publication US12226450B2, “Peptides and methods for treating disease” (OP-T LLC, priority 2019, dated 2025)
Where no end group is shown, it is not given here.

Columns and labels:
NOD mice [1] = assay: Hyperglycemia in diabetic NOD mice treated with KGYY-15; format: in vivo, mouse; conditions: control treatments, blood glucose between 250-400 mg/dl
Protocol: In this study, NOD mice, blood glucose between 250-400 mg/dl were treated with KGYY-15. Control mice were treated with MR1 an anti-CD154 antibody or scrambled 15-mer peptide (SEQ ID NO: 17). KGYY-15 (SEQ ID NO: 11) reduced blood glucose in 57% of mice treated, the controls MR1 and scrambled 15-mer peptide had no effect.

CD4+ and CD8+ cells = assay: CD4/CD8 ratio in blood of peptide-treated NOD mice by flow cytometry; format: in vivo, mouse; conditions: 25 ug tail vein weekly
Protocol: (§1) Peptides were designed based on the amino acid sequence of mouse CD154 protein (SEQ ID NO:1) in the SwissPro database. […] Weekly after the initial injection, another 25 ug of peptide (or 100 ul of PBS in the case of the Control mice) was injected into the tail vein. At 10 weeks of age, mice were monitored for diabetes, as indicated by a blood glucose level greater than 250 mg/dL for three consecutive days. During this time, blood was also taken from the tail vein, or by sub-mandibular venal puncture, and the level of CD4+ and CD8+ cells determined by flow cytometry using antibodies for CD4 protein and CD8 protein.

diabetic dogs = assay: Safety in treated diabetic dogs: blood counts, chemistry panels, adverse effects; format: in vivo, dog
Protocol: Five diabetic dogs including 4 new onset and 1 long-term, (diagnosis greater than 3 years) were recruited into a test case study. The dogs were enrolled at Colorado State University Veterinary Hospital (CSU-VH), Fort Collins, CO for the study. Each dog was assessed by a Board-Certified Veterinarian. Blood samples were collected from each dog and analyzed by chemistry panels to determine general health, as well as assessed by complete physical examination. The dogs were each confirmed diabetic, blood glucose ranging from 300-600 mg/dl but were generally in good health otherwise. One dog was diagnosed with hypertension, and two dogs had eye problems, partial blindness and the long-term dog was completely blind from diabetes.
Breeds were varied and sizes ranged from 8 to 27 kilos. Four of the dogs had been diagnosed for 3 months or less, 1 dog was diagnosed for 3.5 years. All dogs were receiving daily insulin treatments. The route of administration was IV infusion of SEQ ID NO. 13 over 30 minutes at 2 mg/kg on Days 0, 4, 8 and then weekly thereafter for a total of 8 weeks. The dogs were treated with the dog-sequence (SEQ ID NO: 13—VLRWAPKGYYTISSN); acetate salt form; brought up in sterile PBS for injection; injection was done as a slow infusion over 30 minutes. […] The dog diagnosed for 3.5 years experienced an improvement of time-in-range (percentage of a 24-hour period that blood glucose ranged between 80 and 160) from 10% to 80% for 5 consecutive days in the 5th week and achieved this for the last 3 test weeks. Typical responses in all five dogs was that 3-5 days post treatment improvements in blood glucose occurred. For example, blood glucose would move from 400 to 120, remain stable for 2 days but return to elevated levels. In all the treated dogs, glucose spikes were at lower levels, 300 mg/dl as a high, compared to >500 mg/dl prior to treatment. In fact, prior to treatment, none of the dogs recorded blood glucose levels less than 350. During treatment dogs were at 200 mg/dl or lower the majority of the time and in many cases were at 150 mg/dl or less.
Prior to treatment blood samples were analyzed for blood glucose levels and Th40 cell percentages in peripheral blood. These pre-treatment Th40 cell levels and blood glucose levels can be seen in FIGS. 15, 16, and 17. In FIG. 15, controls are blood samples from test beagles used by CSU-VH and were all confirmed non-diabetic (i.e. not diabetic). […] On day 0, prior to the first treatment, blood was collected from leg vein and analyzed for Th40 cell percentages. […] Samples were analyzed for Th40 cells by flow cytometry. Furthermore, isolated blood was processed to obtain lymphocytes. […] The percentage of CD4+CD40+ as a subset of total CD4+ cells was determined and graphed. […]

NOD mice [2] = assay: Development of diabetes in NOD mice treated with CD154 peptide fragments; format: in vivo, mouse; conditions: 25 ug (1 mg/kg) tail vein weekly from 6 weeks of age; diabetes = blood glucose greater than 250 mg/dL for three consecutive days
Protocol: as §1

[3] = system: CD3+CD4+CD40+(Th40) splenic cells; assay: Inflammatory cytokines in cultured Th40 splenic cells from ApoE−/− mice; format: cell-based, mouse; conditions: overnight culture, varying concentrations, compared to the untreated cells
Protocol: FIG. 24 provides a graph showing that different concentrations of peptide of SEQ ID NO:46 affects or influences levels of IL-2, IFNγ, and IL-17A. In this study, CD3+CD4+CD40+(Th40) splenic cells were purified from ApoE^−/− with cardiovascular disease. The cells were cultured overnight in the absence/presence of varying concentrations of KGYY6 peptide.

[4] = diabetic dogs, IV infusion 2 mg/kg

Compound: YKNVKQMAYWLTGKS [scrambled 15-mer peptide]
- effect on blood glucose (NOD mice [1]): no effect

Compound: CSCC[C@H](NC(=O)[C@@H](NC(=O)[C@H](Cc1ccc(O)cc1)NC(=O)[C@H](Cc1ccc(O)cc1)NC(=O)CNC(=O)[C@H](CCCCN)NC(=O)[C@H](CCCCN)NC(=O)[C@H](C)NC(=O)[C@H](Cc1c[nH]c2ccccc12)NC(=O)[C@H](CCC(N)=O)NC(=O)[C@H](CC(C)C)NC(=O)[C@@H](N)C(C)C)[C@@H](C)O)C(=O)N[C@@H](CCCCN)C(=O)N[C@@H](CO)C(=O)N[C@@H](CC(N)=O)C(=O)O [15-mer peptide, VLQWAKKGYYTMKSN]
- compromise of the immune system, as determined by the CD4/CD8 ratio (CD4+ and CD8+ cells): did not result in compromise of the immune system

Compound: VLRWAPKGYYTISSN [SEQ ID NO: 13, VLRWAPKGYYTISSN]
- adverse effects (diabetic dogs; [4]): None of the dogs experienced any adverse effects
- chemistry panel numbers (diabetic dogs; [4]): normal
- impact on WBC and RBC (diabetic dogs; [4]): no negative impacts
- blood chemistry panels versus samples prior to treatment (diabetic dogs; each improved from blood samples prior to treatment): normal levels on most parameters

Compound: VLQWAKKGYYTMK (not fully specified (C-terminus)) [13-mer peptides]
- development of diabetes (NOD mice [2]): significant effects on the development of diabetes

Compound: AKKGYY (not fully specified (C-terminus)) [KGYY6]
- IFNγ [3]: varying degrees of reduction
- IL-2 [3]: varying degrees of reduction
- IL-17A [3]: varying degrees of reduction
